Tests used:
[1] = system: Salmonella typhimurium strain TA 100; assay: Ames bio-assay, antimutagenic activity against 2-amino-anthracene (2-AA) with S9 Mix; type: cell-based; conditions: for Residual mutagenic activity (%) observed for 2-AA: 1 μg 2-AA per plate, S9 Mix
Protocol: (§1) The four major constituents of the benzene extract from Aristolochia taliscana roots—eupomatenoid-7 (7), eupomatenoid-1 (8), eupomatenoid-8 (17), Licarin-A (16)—were tested for their mutagenic and antimutagenic properties using the Ames bio-assay (Maron, D. M. and Ames, B. N., Mutation reasearch, 1983, 113, 173). The test compounds have the following structural formula: [drawing 11]
(§2) Salmonella typhimurium strain TA 100 was used as the test organism and 2-amino-anthracene (2-AA) and 2-nitrofluorene (2-NF) as standard mutagens, of which 1 μg were added to each test plate. In the experiments with 2-AA, “S9 Mix” (derived from phenobarbital treated rat liver cells (De Flora, S., Camoirana, A., D'Agostini, F. and Balansky, R., Mutation Research, 1992, 267, 183) was also added.

[2] = system: Salmonella typhimurium strain TA 100; assay: Ames bio-assay, antimutagenic activity against 2-nitrofluorene (2-NF); type: cell-based; conditions: for Residual mutagenic activity (%) observed for 2-NF: 1 μg 2-NF per plate
Protocol: as §1, §2

brine shrimp = assay: Brine shrimp bioassay (cytotoxicity); type: in vivo; conditions: for LC50: brine shrimp, 24 hours
Protocol: The cytotoxicity of compounds isolated from Aristolochia taliscana was assayed using the well known brine shrimp bioassay. The cytotoxicities of compounds of the invention, expressed as percentage “death rates” after 24 hours, at varying concentrations, are shown in Table 8 below.

Botryis cinerea = assay: Antifungal plate diffusion method; type: cell-based; conditions: 150 microgramme aliquot spotted onto plate
Protocol: (§3) The antifungal activities of compounds of the invention was determined using a plate diffusion method. Plates containing medium and a fungal species were made up and 150 microgramme aliquots of a test compound of the invention were spotted onto the plate. The diameter of inhibition of fungal growth around the test compound was then determined.

Rhizoctonia solani = assay: Antifungal plate diffusion method; type: cell-based; conditions: 150 microgramme aliquot spotted onto plate
Protocol: as §3

Saprolegnia asterophora = assay: Antifungal plate diffusion method; type: cell-based; conditions: 150 microgramme aliquot spotted onto plate
Protocol: as §3

C/C=C/c1cc(OC)c2oc(-c3ccc(O)c(OC)c3)c(CO)c2c1
melting point: 175 to 179 °C

COc1cc(C2(C)COc3c(OC)cc(C=O)cc32)ccc1O (stereo not shown)
melting point: 162 to 165 °C

COc1cc(-c2oc3c(OC)cc(/C=C/CO)cc3c2C)ccc1O
melting point: 180 to 183 °C

C=CC(O)c1cc(OC)c2oc(-c3ccc(O)c(OC)c3)c(C)c2c1 (racemic)
melting point: 164 to 167 °C

CC=Cc1cc(OC)c2c(c1)C(C)C(c1ccc3c(c1)OCO3)O2 (single isomer, unassigned; (-)) [Eupomatenoid-8 (17)]
antimutagenic effect against 2-aminoanthracene (in words) [1]: did not show any antimutagenic effect | Residual mutagenic activity (%) observed for 2-AA ([1]; 50 μg compound added): 90% | Residual mutagenic activity (%) observed for 2-AA ([1]; 100 μg compound added): 73% | antimutagenic effect against 2-nitrofluorene (in words) [2]: did not show any antimutagenic effect | Residual mutagenic activity (%) observed for 2-NF ([2]; 50 μg compound added): 100% | Residual mutagenic activity (%) observed for 2-NF ([2]; 100 μg compound added): 95% | “Death Rate” After 24 Hours (%) (brine shrimp; 10 ppm): 9% | “Death Rate” After 24 Hours (%) (brine shrimp; 100 ppm): 27% | “Death Rate” After 24 Hours (%) (brine shrimp; 500 ppm): 42% | LC50 (brine shrimp): >500 ppm | diameter of inhibition of fungal growth, Botryis cinerea (Botryis cinerea): − | diameter of inhibition of fungal growth, Rhizoctonia solani (Rhizoctonia solani): − | diameter of inhibition of fungal growth, Saprolegnia asterophora (Saprolegnia asterophora): −

COc1ccc2cc3c4c(cc(OC)c(OC)c4c2c1)C(=O)N3 [Aristolactam B (3), Aristolactam B III]
“Death Rate” After 24 Hours (%) (brine shrimp; 10 ppm): 5% | “Death Rate” After 24 Hours (%) (brine shrimp; 100 ppm): 9% | “Death Rate” After 24 Hours (%) (brine shrimp; 500 ppm): 29% | LC50 (brine shrimp): >500 ppm | diameter of inhibition of fungal growth, Botryis cinerea (Botryis cinerea): − | diameter of inhibition of fungal growth, Rhizoctonia solani (Rhizoctonia solani): + (+ = 5 mm diameter inhibition) | diameter of inhibition of fungal growth, Saprolegnia asterophora (Saprolegnia asterophora): −

COc1cc2c(cc1C)C(=O)[C@H](O)C[C@@H]2C [Compound 34, (2R,4S)-2-Hydroxy-6-methoxy-4,7-dimethyl-1-tetralone]
“Death Rate” After 24 Hours (%) (brine shrimp; 10 ppm): 52% | “Death Rate” After 24 Hours (%) (brine shrimp; 100 ppm): 86% | “Death Rate” After 24 Hours (%) (brine shrimp; 500 ppm): 100% | LC50 (brine shrimp): <10 ppm | diameter of inhibition of fungal growth, Botryis cinerea (Botryis cinerea): ++ (++ = 5-10 mm diameter inhibition) | diameter of inhibition of fungal growth, Rhizoctonia solani (Rhizoctonia solani): ++ (++ = 5-10 mm diameter inhibition) | diameter of inhibition of fungal growth, Saprolegnia asterophora (Saprolegnia asterophora): ++ (++ = 5-10 mm diameter inhibition)

COc1cc(/C=C/CO)ccc1O [Coniferyl alcohol (29), Coniferyl alcohol]
“Death Rate” After 24 Hours (%) (brine shrimp; 10 ppm): 0% | “Death Rate” After 24 Hours (%) (brine shrimp; 100 ppm): 0% | “Death Rate” After 24 Hours (%) (brine shrimp; 500 ppm): 15% | LC50 (brine shrimp): >500 ppm | diameter of inhibition of fungal growth, Botryis cinerea (Botryis cinerea): − | diameter of inhibition of fungal growth, Rhizoctonia solani (Rhizoctonia solani): − | diameter of inhibition of fungal growth, Saprolegnia asterophora (Saprolegnia asterophora): −

C=C1/C=C/[C@@H](C(C)C)CC/C(C)=C/CC1 [E-Germacrene D (38), ent-Germacrene-D]
“Death Rate” After 24 Hours (%) (brine shrimp; 10 ppm): 0% | “Death Rate” After 24 Hours (%) (brine shrimp; 100 ppm): 39% | “Death Rate” After 24 Hours (%) (brine shrimp; 500 ppm): 100% | LC50 (brine shrimp): ca. 126 ppm | diameter of inhibition of fungal growth, Botryis cinerea (Botryis cinerea): + (+ = 5 mm diameter inhibition) | diameter of inhibition of fungal growth, Rhizoctonia solani (Rhizoctonia solani): + (+ = 5 mm diameter inhibition) | diameter of inhibition of fungal growth, Saprolegnia asterophora (Saprolegnia asterophora): −

CC=Cc1cc(OC)c2oc(-c3ccc4c(c3)OCO4)c(C)c2c1 [Eupomatenoid-1 (8), Eupomatenoid-1]
antimutagenic effect against 2-aminoanthracene (in words) [1]: antimutagenically active | Residual mutagenic activity (%) observed for 2-AA ([1]; 50 μg compound added): 49% | Residual mutagenic activity (%) observed for 2-AA ([1]; 100 μg compound added): 44% | antimutagenic effect against 2-nitrofluorene (in words) [2]: not against 2-NF | Residual mutagenic activity (%) observed for 2-NF ([2]; 50 μg compound added): 99% | Residual mutagenic activity (%) observed for 2-NF ([2]; 100 μg compound added): 93% | “Death Rate” After 24 Hours (%) (brine shrimp; 10 ppm): 12% | “Death Rate” After 24 Hours (%) (brine shrimp; 100 ppm): 16% | “Death Rate” After 24 Hours (%) (brine shrimp; 500 ppm): 20% | LC50 (brine shrimp): >500 ppm | diameter of inhibition of fungal growth, Botryis cinerea (Botryis cinerea): − | diameter of inhibition of fungal growth, Rhizoctonia solani (Rhizoctonia solani): − | diameter of inhibition of fungal growth, Saprolegnia asterophora (Saprolegnia asterophora): −

C/C=C/c1cc(OC)c2oc(-c3ccc(O)c(OC)c3)c(C)c2c1 [Eupomatenoid-7 (7), Eupomatenoid-7]
antimutagenic effect against 2-aminoanthracene (in words) [1]: strong antimutagenic effects | Residual mutagenic activity (%) observed for 2-AA ([1]; 50 μg compound added): 4% | Residual mutagenic activity (%) observed for 2-AA ([1]; 100 μg compound added): 0% | antimutagenic effect against 2-nitrofluorene (in words) [2]: strong antimutagenic effects | Residual mutagenic activity (%) observed for 2-NF ([2]; 50 μg compound added): 16% | Residual mutagenic activity (%) observed for 2-NF ([2]; 100 μg compound added): 0% | “Death Rate” After 24 Hours (%) (brine shrimp; 10 ppm): 27% | “Death Rate” After 24 Hours (%) (brine shrimp; 100 ppm): 38% | “Death Rate” After 24 Hours (%) (brine shrimp; 500 ppm): 38% | LC50 (brine shrimp): >500 ppm | diameter of inhibition of fungal growth, Botryis cinerea (Botryis cinerea): − | diameter of inhibition of fungal growth, Rhizoctonia solani (Rhizoctonia solani): − | diameter of inhibition of fungal growth, Saprolegnia asterophora (Saprolegnia asterophora): −

C/C=C/c1cc(OC)c2c(c1)[C@H](C)[C@@H](c1ccc(O)c(OC)c1)O2 [Licarin-A (16), Licarin-A]
antimutagenic effect against 2-aminoanthracene (in words) [1]: antimutagenically active | Residual mutagenic activity (%) observed for 2-AA ([1]; 50 μg compound added): 31% | Residual mutagenic activity (%) observed for 2-AA ([1]; 100 μg compound added): 6% | antimutagenic effect against 2-nitrofluorene (in words) [2]: not against 2-NF | Residual mutagenic activity (%) observed for 2-NF ([2]; 50 μg compound added): 94% | Residual mutagenic activity (%) observed for 2-NF ([2]; 100 μg compound added): 85% | “Death Rate” After 24 Hours (%) (brine shrimp; 10 ppm): 93% | “Death Rate” After 24 Hours (%) (brine shrimp; 100 ppm): 93% | “Death Rate” After 24 Hours (%) (brine shrimp; 500 ppm): 96% | LC50 (brine shrimp): <10 ppm | diameter of inhibition of fungal growth, Botryis cinerea (Botryis cinerea): − | diameter of inhibition of fungal growth, Rhizoctonia solani (Rhizoctonia solani): ++ (++ = 5-10 mm diameter inhibition) | diameter of inhibition of fungal growth, Saprolegnia asterophora (Saprolegnia asterophora): −

COc1cc([C@@H]2c3cc4c(cc3[C@H](O)[C@H]3COC(=O)[C@H]23)OCO4)cc(OC)c1OC [Podophyllotoxin, reference compound]
“Death Rate” After 24 Hours (%) (brine shrimp; 10 ppm): 74% | “Death Rate” After 24 Hours (%) (brine shrimp; 100 ppm): 93% | “Death Rate” After 24 Hours (%) (brine shrimp; 500 ppm): 100% | LC50 (brine shrimp): <10 ppm

COc1cc(C=O)ccc1O [Vanillin (31), Vanillin]
“Death Rate” After 24 Hours (%) (brine shrimp; 10 ppm): 5% | “Death Rate” After 24 Hours (%) (brine shrimp; 100 ppm): 0% | “Death Rate” After 24 Hours (%) (brine shrimp; 500 ppm): 12% | LC50 (brine shrimp): >500 ppm | diameter of inhibition of fungal growth, Botryis cinerea (Botryis cinerea): − | diameter of inhibition of fungal growth, Rhizoctonia solani (Rhizoctonia solani): − | diameter of inhibition of fungal growth, Saprolegnia asterophora (Saprolegnia asterophora): −

(+)(2R, 3R)-Dihydrocarinatidin [Dihydrocarinatidine (21)]
“Death Rate” After 24 Hours (%) (brine shrimp; 10 ppm): 26% | “Death Rate” After 24 Hours (%) (brine shrimp; 100 ppm): 53% | “Death Rate” After 24 Hours (%) (brine shrimp; 500 ppm): 80% | LC50 (brine shrimp): ca. 120 ppm | diameter of inhibition of fungal growth, Botryis cinerea (Botryis cinerea): + (+ = 5 mm diameter inhibition) | diameter of inhibition of fungal growth, Rhizoctonia solani (Rhizoctonia solani): + (+ = 5 mm diameter inhibition) | diameter of inhibition of fungal growth, Saprolegnia asterophora (Saprolegnia asterophora): + (+ = 5 mm diameter inhibition)

Aristolactam C III [Aristolactam C (4)]
“Death Rate” After 24 Hours (%) (brine shrimp; 10 ppm): 0% | “Death Rate” After 24 Hours (%) (brine shrimp; 100 ppm): 0% | “Death Rate” After 24 Hours (%) (brine shrimp; 500 ppm): 3% | LC50 (brine shrimp): >500 ppm | diameter of inhibition of fungal growth, Botryis cinerea (Botryis cinerea): + (+ = 5 mm diameter inhibition) | diameter of inhibition of fungal growth, Rhizoctonia solani (Rhizoctonia solani): + (+ = 5 mm diameter inhibition) | diameter of inhibition of fungal growth, Saprolegnia asterophora (Saprolegnia asterophora): ++ (++ = 5-10 mm diameter inhibition)

Source: US20020099086A1, “Use of extracts from aristolochia in the treatment of AIDS” (PROTEOME SCIENCES PLC, priority 1998, published 2002)
